Measured values from publication PMC6359144 (International Journal of Molecular Sciences, 2019).

Assays:
nude mice = assay: In vivo toxicity in nude mice; parameters: species or system mouse; details: 1 × 100 mg/kg i.p., 1 × 200 mg/kg orally
Description: In vivo toxicity of 4d was studied in nude mice (Charles River Laboratories, Sulzfeld, Germany). These experiments were carried out following the institutional guidelines. 4d was formulated in 10% Tween80/10% ethanol/80% saline for administration. […] The body weight of the mice was assessed daily under therapy.

[1] = tested on: acetyl–alpha-tubulin in 518A2 melanoma cells; assay: Western blot and immunofluorescence of acetyl-alpha-tubulin; format: cell-based, human; details: 4f 4, 5, 6 µM (blot), 4 µM (immunofluorescence), 24 h
Description: After harvesting the cells by trypsination, they were pelleted by centrifugation (300× g, 5 min) followed by cell lysis in 100 µL lysis buffer (20 mM DTT, 200 µM sodium vanadate, 50 mM Tris/HCl, 1% triton X-100, 150 mM NaCl, pH 7.4) for 10 min on ice. […] Equal amounts of total protein were subjected to 10% SDS-polyacrylamide gel electrophoresis (SDS-PAGE) and transferred to polyvinylidene difluoride membranes (PVDF, Carl Roth). For subsequent analysis of acetylated protein and of alpha-tubulin which was used as a loading control, membranes were blocked and incubated with primary antibody solutions in 5% bovine serum albumin in 1× TBS or 5% milk powder in PBS, respectively. The protein bands were visualized by chemoluminescence (secondary antibody-HRP conjugates, ECL detection system; Cell Signaling) using a LAS-3000 imager (Fujifilm).
Immuofluorescence staining of acetylated alpha- tubulin.
After washing the cells with PBS, they were fixed in 3.7% formaldehyde in PBS (20 min, rt) followed by blocking and permeabilization in TBS supplemented with 5% BSA and 0.1% triton X-100 (30 min, rt). […]
antibody conjugate in the dark (2 h, rt). […] Pictures were taken by using a Zeiss Imager A1 AX10 fluorescence microscope (400× magnification). […]
The open image area after 24 h (%) compared to that at 0 h was quantified from three independent experiments by using the imageJ 1.50i software. […]

SMILES	body weight changes (nude mice) [%]	tolerability in mice (nude mice; observed two weeks)	acetylation of alpha-tubulin [1]
COc1ccc(-c2ocnc2-c2cc(Br)c(OC)c(OC)c2)cc1OCCCC(=O)NO [4d, N-Hydroxy-4-[1-methoxy-4-(4’-(3’’-bromo-4’’,5’’-dimethoxyphenyl)oxazol-5’-yl)-2-phenoxy]butanamide]	≤ 5	tolerated well	–
COc1ccc(-c2ocnc2-c2cc(Br)c(OC)c(OC)c2)cc1OCCCCCC(=O)NO [4f, N-Hydroxy-6-[1-methoxy-4-(4’-(3’’-bromo-4’’,5’’-dimethoxyphenyl)oxazol-5’-yl)-2-phenoxy]hexanamide]	–	–	distinct increase of acetyl–alpha-tubulin
